Reference: PMC5218480 (PLoS ONE, 2017)

Test system: MV-4-11 cells
Experiment: Gene expression microarray analysis (Affymetrix PrimeView) and GSEA
Assay type: cell-based, human
Design: RFU PODN (11730768_x_at) / Fold change /veh PODN (11730768_x_at) / RFU LINC00158 (11744669_a_at) / Fold change /veh LINC00158 (11744669_a_at) / RFU DUSP10 (11751237_a_at) / Fold change /veh DUSP10 (11751237_a_at) / RFU ID3 (11757404_x_at) / Fold change /veh ID3 (11757404_x_at) / RFU PLEKHG5 (11737974_s_at) / Fold change /veh PLEKHG5 (11737974_s_at) / RFU LRRC4B (11730491_at) / Fold change /veh LRRC4B (11730491_at) / RFU GIMAP4 (11747438_a_at) / Fold change /veh GIMAP4 (11747438_a_at) / RFU KRT8 (11758183_x_at) / Fold change /veh KRT8 (11758183_x_at) / RFU CNN1 (11734310_a_at) / Fold change /veh CNN1 (11734310_a_at) / RFU VPS37D (11726825_at) / Fold change /veh VPS37D (11726825_at) / RFU C10orf10 (11716522_x_at) / Fold change /veh C10orf10 (11716522_x_at) / RFU KIR2DL2 /// KIR2DL4 /// KIR2DL5A /// KIR2DL5B /// KIR2DS1 /// KIR2DS2 /// KIR2DS3 /// KIR2DS4 /// KIR3DL3 /// KIR3DL3 /// KIR3DS1 (11738374_at) / Fold change /veh KIR2DL2 /// KIR2DL4 /// KIR2DL5A /// KIR2DL5B /// KIR2DS1 /// KIR2DS2 /// KIR2DS3 /// KIR2DS4 /// KIR3DL3 /// KIR3DL3 /// KIR3DS1 (11738374_at) / RFU C1QL1 (11718748_at) / Fold change /veh C1QL1 (11718748_at) / RFU TMPRSS4 (11747572_a_at) / Fold change /veh TMPRSS4 (11747572_a_at) / RFU HAMP (11756126_x_at) / Fold change /veh HAMP (11756126_x_at) / RFU RNFT2 (11725882_a_at) / Fold change /veh RNFT2 (11725882_a_at) / RFU NR4A2 (11747474_a_at) / Fold change /veh NR4A2 (11747474_a_at) / RFU ABCC12 (11746883_a_at) / Fold change /veh ABCC12 (11746883_a_at) / RFU TMEM136 (11760407_x_at) / Fold change /veh TMEM136 (11760407_x_at) / RFU CLDN22 /// WWC2 (11732394_at) / Fold change /veh CLDN22 /// WWC2 (11732394_at) / RFU HLA-DPB1 (11760878_x_at) / Fold change /veh HLA-DPB1 (11760878_x_at) / RFU SPINT1 (11716480_a_at) / Fold change /veh SPINT1 (11716480_a_at) / RFU GAP43 (11754022_s_at) / Fold change /veh GAP43 (11754022_s_at) / RFU A4GNT (11735810_at) / Fold change /veh A4GNT (11735810_at) / RFU PRB3 (11715151_x_at) / Fold change /veh PRB3 (11715151_x_at) / RFU TUBB4B (11761932_at) / Fold change /veh TUBB4B (11761932_at) / RFU CAPN14 (11732068_a_at) / Fold change /veh CAPN14 (11732068_a_at) / RFU TMCC2 (11721928_a_at) / Fold change /veh TMCC2 (11721928_a_at) / RFU IRGQ (11745062_a_at) / Fold change /veh IRGQ (11745062_a_at) / RFU FAM174B (11720279_a_at) / Fold change /veh FAM174B (11720279_a_at) / RFU TMPRSS4 (11748680_a_at) / Fold change /veh TMPRSS4 (11748680_a_at) / RFU FAM212B (11763350_a_at) / Fold change /veh FAM212B (11763350_a_at) / RFU PLEKHG5 (11743358_a_at) / Fold change /veh PLEKHG5 (11743358_a_at) / RFU ZSCAN30 (11745921_a_at) / Fold change /veh ZSCAN30 (11745921_a_at) / RFU CMKLR1 (11741424_a_at) / Fold change /veh CMKLR1 (11741424_a_at) / RFU LOC101060620 /// MAPK8IP1 (11723275_at) / Fold change /veh LOC101060620 /// MAPK8IP1 (11723275_at) / RFU SPTSSB (11747773_x_at) / Fold change /veh SPTSSB (11747773_x_at) / RFU PRSS12 (11739890_at) / Fold change /veh PRSS12 (11739890_at) / RFU BIN1 (11741810_x_at) / Fold change /veh BIN1 (11741810_x_at) / RFU WNT11 (11732464_a_at) / Fold change /veh WNT11 (11732464_a_at) / RFU C10orf10 (11716521_a_at) / Fold change /veh C10orf10 (11716521_a_at) / RFU C5orf56 (11738089_at) / Fold change /veh C5orf56 (11738089_at) / RFU CYB561 (11721691_x_at) / Fold change /veh CYB561 (11721691_x_at) / RFU ANKRD19P (11752326_a_at) / Fold change /veh ANKRD19P (11752326_a_at) / RFU OR2T12 /// OR2T33 /// OR2T8 (11738714_s_at) / Fold change /veh OR2T12 /// OR2T33 /// OR2T8 (11738714_s_at) / RFU VCAN (11748164_a_at) / Fold change /veh VCAN (11748164_a_at) / RFU JSRP1 (11732532_at) / Fold change /veh JSRP1 (11732532_at) / RFU KRTAP10-11 (11738290_x_at) / Fold change /veh KRTAP10-11 (11738290_x_at) / RFU MYO3A (11730013_a_at) / Fold change /veh MYO3A (11730013_a_at) / RFU EBF3 (11725865_a_at) / Fold change /veh EBF3 (11725865_a_at) / RFU CAMK2N1 (11719241_x_at) / Fold change /veh CAMK2N1 (11719241_x_at) / RFU C5orf56 (11738088_a_at) / Fold change /veh C5orf56 (11738088_a_at) / RFU OLFML3 (11715873_a_at) / Fold change /veh OLFML3 (11715873_a_at) / RFU LOC100653217 /// NTM (11731650_a_at) / Fold change /veh LOC100653217 /// NTM (11731650_a_at) / RFU MAPK11 (11762145_a_at) / Fold change /veh MAPK11 (11762145_a_at) / RFU FIZ1 (11724087_x_at) / Fold change /veh FIZ1 (11724087_x_at) / RFU OASL (11726364_x_at) / Fold change /veh OASL (11726364_x_at) / RFU SOX15 (11748057_x_at) / Fold change /veh SOX15 (11748057_x_at) / RFU CD79A (11719716_a_at) / Fold change /veh CD79A (11719716_a_at) / RFU HIST1H1D (11736915_at) / Fold change /veh HIST1H1D (11736915_at) / RFU CASKIN2 (11723855_a_at) / Fold change /veh CASKIN2 (11723855_a_at) / RFU LOC730098 (11760151_x_at) / Fold change /veh LOC730098 (11760151_x_at) / RFU OR4N2 (11742367_at) / Fold change /veh OR4N2 (11742367_at) / RFU PRRT2 (11749266_a_at) / Fold change /veh PRRT2 (11749266_a_at) / RFU SNX32 (11753110_a_at) / Fold change /veh SNX32 (11753110_a_at) / RFU CDHR5 (11726645_a_at) / Fold change /veh CDHR5 (11726645_a_at) / RFU RCAN1 (11760418_a_at) / Fold change /veh RCAN1 (11760418_a_at) / RFU FAM167A (11723789_a_at) / Fold change /veh FAM167A (11723789_a_at) / RFU FAM26E (11764081_at) / Fold change /veh FAM26E (11764081_at) / RFU ISYNA1 (11749810_s_at) / Fold change /veh ISYNA1 (11749810_s_at) / RFU ACY1 (11761880_at) / Fold change /veh ACY1 (11761880_at) / RFU 11764098_at / Fold change /veh 11764098_at / RFU SAMD14 (11745864_x_at) / Fold change /veh SAMD14 (11745864_x_at) / RFU NPB (11741838_a_at) / Fold change /veh NPB (11741838_a_at) / RFU TMPRSS6 (11731388_a_at) / Fold change /veh TMPRSS6 (11731388_a_at) / RFU KRTAP10-2 (11738614_at) / Fold change /veh KRTAP10-2 (11738614_at) / RFU ARHGAP8 /// PRR5-ARHGAP8 (11727945_x_at) / Fold change /veh ARHGAP8 /// PRR5-ARHGAP8 (11727945_x_at) / RFU KRTAP5-7 /// NADSYN1 (11734609_at) / Fold change /veh KRTAP5-7 /// NADSYN1 (11734609_at) / RFU RASL12 (11751679_a_at) / Fold change /veh RASL12 (11751679_a_at) / RFU CDKN2B (11736163_a_at) / Fold change /veh CDKN2B (11736163_a_at) / RFU PRF1 (11729649_at) / Fold change /veh PRF1 (11729649_at) / RFU, ZNF638 /// ZNF638-IT1 / Fold change vs veh, ZNF638 /// ZNF638-IT1 / RFU, PANK3 / Fold change vs veh, PANK3 / RFU, SH3YL1 / Fold change vs veh, SH3YL1 / RFU, ZEB2 / Fold change vs veh, ZEB2 / RFU, NRIP1 / Fold change vs veh, NRIP1 / RFU, PTTG1IP / Fold change vs veh, PTTG1IP / RFU, CAPN2 / Fold change vs veh, CAPN2 / RFU, MED14 / Fold change vs veh, MED14 / RFU, SNORA58 / Fold change vs veh, SNORA58 / RFU, C1orf63 / Fold change vs veh, C1orf63 / RFU, LRRFIP1 / Fold change vs veh, LRRFIP1 / RFU, NDUFAF7 / Fold change vs veh, NDUFAF7 / RFU, SLC12A2 / Fold change vs veh, SLC12A2 / RFU, IBTK / Fold change vs veh, IBTK / RFU, ESF1 / Fold change vs veh, ESF1 / Fold change vs veh, TMEM50B / RFU, TAOK1 / Fold change vs veh, TAOK1 / RFU, ACBD3 / Fold change vs veh, ACBD3 / RFU, TMA16 / Fold change vs veh, TMA16 / RFU, RWDD3 / Fold change vs veh, RWDD3 / RFU, BCAT1 / Fold change vs veh, BCAT1 / RFU, EDEM3 / Fold change vs veh, EDEM3 / RFU, TMEM33 / Fold change vs veh, TMEM33 / RFU, WDR75 / Fold change vs veh, WDR75 / RFU, AHCTF1 / Fold change vs veh, AHCTF1 / RFU, TFRC / Fold change vs veh, TFRC / RFU, ZDHHC17 / Fold change vs veh, ZDHHC17 / RFU, NOM1 / Fold change vs veh, NOM1 / RFU, ARL8B / Fold change vs veh, ARL8B / RFU, ZBTB11 / Fold change vs veh, ZBTB11 / RFU, TAMM41 / Fold change vs veh, TAMM41 / RFU, KIAA1704 /// LOC100996395 / Fold change vs veh, KIAA1704 /// LOC100996395 / RFU, ING1 / Fold change vs veh, ING1 / RFU, TRMT61B / Fold change vs veh, TRMT61B / RFU, FUBP3 / Fold change vs veh, FUBP3 / RFU, TP53 / Fold change vs veh, TP53 / RFU, TNKS2 / Fold change vs veh, TNKS2 / RFU, ZFP14 / Fold change vs veh, ZFP14 / RFU, ACTR2 / Fold change vs veh, ACTR2 / RFU, PPP3R1 / Fold change vs veh, PPP3R1 / RFU, PIK3R1 / Fold change vs veh, PIK3R1 / RFU, HNRNPA1 / Fold change vs veh, HNRNPA1 / RFU, RNF170 / Fold change vs veh, RNF170 / RFU, ZNF28 / Fold change vs veh, ZNF28 / RFU, RNGTT / Fold change vs veh, RNGTT / RFU, OGT / Fold change vs veh, OGT / RFU, BRD1 / Fold change vs veh, BRD1 / RFU, MARS / Fold change vs veh, MARS / RFU, ZNF655 / Fold change vs veh, ZNF655 / RFU, FAHD1 / Fold change vs veh, FAHD1 / RFU, BDP1 / Fold change vs veh, BDP1 / RFU, LRRCC1 / Fold change vs veh, LRRCC1 / RFU, ARID1A / Fold change vs veh, ARID1A / RFU, ZNF146 / Fold change vs veh, ZNF146 / RFU, ZNF330 / Fold change vs veh, ZNF330 / RFU, GPN3 / Fold change vs veh, GPN3 / RFU, C9orf123 / Fold change vs veh, C9orf123 / RFU, N4BP2L2 / Fold change vs veh, N4BP2L2 / RFU, ARFIP1 / Fold change vs veh, ARFIP1 / RFU, FAM179B / Fold change vs veh, FAM179B / RFU, BCL10 / Fold change vs veh, BCL10 / RFU, UHRF1BP1L / Fold change vs veh, UHRF1BP1L / RFU, BET1 / Fold change vs veh, BET1 / RFU, CNOT2 / Fold change vs veh, CNOT2 / RFU, ZNF268 / Fold change vs veh, ZNF268 / Fold change vs veh, ZNF507 / RFU, DGCR2 / Fold change vs veh, DGCR2 / RFU, WDSUB1 / Fold change vs veh, WDSUB1 / Fold change vs veh, HSP90B1 /// MIR3652 / RFU, ADSS / Fold change vs veh, ADSS / RFU, GK / Fold change vs veh, GK / RFU, ZNF148 / Fold change vs veh, ZNF148 / RFU, TAF9 / Fold change vs veh, TAF9 / RFU, SLC1A5 / Fold change vs veh, SLC1A5 / RFU, SLMO2 / Fold change vs veh, SLMO2 / RFU, ABCC4 / Fold change vs veh, ABCC4 / RFU, LOC101060439 /// RAP1B / Fold change vs veh, LOC101060439 /// RAP1B / RFU, RFX7 / Fold change vs veh, RFX7 / RFU, GTPBP10 / Fold change vs veh, GTPBP10 / RFU, CNEP1R1 / Fold change vs veh, CNEP1R1 / RFU, BIVM-ERCC5 /// ERCC5 / Fold change vs veh, BIVM-ERCC5 /// ERCC5 / RFU, ILF3 / Fold change vs veh, ILF3 / RFU 11762660_at / Fold change /veh 11762660_at / RFU VCAN (11757783_s_at) / Fold change /veh VCAN (11757783_s_at) / RFU DDX43 (11728927_at) / Fold change /veh DDX43 (11728927_at) / RFU KRT8 (11758188_x_at) / Fold change /veh KRT8 (11758188_x_at) / RFU NKD1 (11759106_at) / Fold change /veh NKD1 (11759106_at) / RFU SRD5A1 (11742802_a_at) / Fold change /veh SRD5A1 (11742802_a_at) / RFU TPSAB1 /// TPSB2 (11721975_s_at) / Fold change /veh TPSAB1 /// TPSB2 (11721975_s_at) / RFU GSTM3 (11746129_a_at) / Fold change /veh GSTM3 (11746129_a_at) / RFU IL23R (11737362_x_at) / Fold change /veh IL23R (11737362_x_at) / RFU TMEM51 (11727254_a_at) / Fold change /veh TMEM51 (11727254_a_at) / RFU PIWIL2 (11732686_x_at) / Fold change /veh PIWIL2 (11732686_x_at) / RFU ORM1 (11744905_x_at) / Fold change /veh ORM1 (11744905_x_at) / RFU CCDC152 (11743942_at) / Fold change /veh CCDC152 (11743942_at) / RFU ECM1 (11717891_a_at) / Fold change /veh ECM1 (11717891_a_at) / RFU IL23R (11748794_a_at) / Fold change /veh IL23R (11748794_a_at) / RFU TNFAIP8L3 (11732012_x_at) / Fold change /veh TNFAIP8L3 (11732012_x_at) / RFU MBOAT4 (11741988_at) / Fold change /veh MBOAT4 (11741988_at) / RFU 11764193_at / Fold change /veh 11764193_at / RFU TMEM53 (11763286_at) / Fold change /veh TMEM53 (11763286_at) / RFU MAGEB2 (11727129_at) / Fold change /veh MAGEB2 (11727129_at) / RFU TMEM200A (11744735_a_at) / Fold change /veh TMEM200A (11744735_a_at) / RFU CCDC152 (11751479_a_at) / Fold change /veh CCDC152 (11751479_a_at) / RFU FAM211A (11726209_a_at) / Fold change /veh FAM211A (11726209_a_at) / RFU RGS16 (11746705_a_at) / Fold change /veh RGS16 (11746705_a_at) / RFU VCAN (11755009_s_at) / Fold change /veh VCAN (11755009_s_at) / RFU RHOB (11743442_s_at) / Fold change /veh RHOB (11743442_s_at) / RFU RGS16 (11720943_a_at) / Fold change /veh RGS16 (11720943_a_at) / RFU RGS16 (11720944_at) / Fold change /veh RGS16 (11720944_at) / RFU, VPS4B / Fold change vs veh, VPS4B / RFU, CREB1 / Fold change vs veh, CREB1 / RFU, DNAJC13 / Fold change vs veh, DNAJC13 / RFU, GNAQ / Fold change vs veh, GNAQ / RFU, CDK5R1 / Fold change vs veh, CDK5R1 / RFU, ZRANB3 / Fold change vs veh, ZRANB3 / RFU, CUL4A / Fold change vs veh, CUL4A / RFU, CCNY / Fold change vs veh, CCNY / RFU, UFL1 / Fold change vs veh, UFL1 / RFU, COG3 / Fold change vs veh, COG3 / RFU, DIAPH2 / Fold change vs veh, DIAPH2 / RFU, SKA2 / Fold change vs veh, SKA2 / RFU, AFF3 / Fold change vs veh, AFF3 / RFU, LMF1 / Fold change vs veh, LMF1 / RFU, IPO11 / Fold change vs veh, IPO11 / RFU, DFFB / Fold change vs veh, DFFB / RFU, FOXP1 / Fold change vs veh, FOXP1 / RFU, CARD8 / Fold change vs veh, CARD8 / RFU, STRN3 / Fold change vs veh, STRN3 / RFU, ADK / Fold change vs veh, ADK / RFU, RASSF2 / Fold change vs veh, RASSF2 / RFU, WIPF1 / Fold change vs veh, WIPF1 / RFU, LARP1B / Fold change vs veh, LARP1B / RFU, RASA1 / Fold change vs veh, RASA1 / RFU, RB1 / Fold change vs veh, RB1 / RFU, PPFIA1 / Fold change vs veh, PPFIA1 / RFU, MAT2A / Fold change vs veh, MAT2A / RFU, CCT5 / Fold change vs veh, CCT5 / RFU, WDR92 / Fold change vs veh, WDR92 / RFU, CUX1 / Fold change vs veh, CUX1 / RFU, TTC7A / Fold change vs veh, TTC7A / RFU, TMEM135 / Fold change vs veh, TMEM135 / RFU, DEPTOR / Fold change vs veh, DEPTOR / RFU, CPM / Fold change vs veh, CPM / RFU, DNAJB6 / Fold change vs veh, DNAJB6 / RFU, CACNA2D3 / Fold change vs veh, CACNA2D3 / RFU, DTX4 / Fold change vs veh, DTX4 / RFU, TFCP2 / Fold change vs veh, TFCP2 / RFU, GMCL1 /// GMCL1P1 / Fold change vs veh, GMCL1 /// GMCL1P1 / RFU, AEBP2 / Fold change vs veh, AEBP2 / RFU, SNHG1 /// SNORD22 /// SNORD25 /// SNORD26 /// SNORD27 /// SNORD28 /// SNORD29 /// SNORD31 / Fold change vs veh, SNHG1 /// SNORD22 /// SNORD25 /// SNORD26 /// SNORD27 /// SNORD28 /// SNORD29 /// SNORD31 / Fold change (Aza/veh), C12orf56 (ProbeSet 11735607_a_at) / Fold change (ACY-1035/veh), C12orf56 (ProbeSet 11735607_a_at) / Fold change (Aza/veh), FGFR1OP (ProbeSet 11751329_s_at) / Fold change (ACY-1035/veh), FGFR1OP (ProbeSet 11751329_s_at) / Fold change (Aza/veh), VPS36 (ProbeSet 11739960_a_at) / Fold change (ACY-1035/veh), VPS36 (ProbeSet 11739960_a_at) / RFU SYPL1 (11715823_x_at) / Fold change /veh SYPL1 (11715823_x_at) / RFU IGFBP7 (11715501_s_at) / Fold change /veh IGFBP7 (11715501_s_at) / RFU REEP3 (11722064_at) / Fold change /veh REEP3 (11722064_at) / RFU IGLL1 (11728026_x_at) / Fold change /veh IGLL1 (11728026_x_at): dose or concentration left out as unconfirmed
Settings: ProbeSet 11725902_s_at; LIST D

**Q.** For `Nc1ncn([C@@H]2O[C@H](CO)[C@@H](O)[C@H]2O)c(=O)n1` [azacitidine], which “Fold change vs veh, TMEM135” value is on record?
**A.** The value was 0.57.
